Data from patent US20020198135A1, “Compositions for release of radiosensitizers, and methods of making and using the same” (priority 2000, published 2002).

Key:
[1] = system: human cancer cell line JHU 012; assay: JHU 012 human cancer cell line tumor in the anterior floor of the mouth of nude mice, intratumoral injection; format: in vivo, immunocompromised (nude) mice; details: intratumoral injection ten days after cell injection, same radiation treatment (as appropriate); measured at approximately twenty days after injection
Description: In another in vivo experiment, 1×10^7 cells from the human cancer cell line JHU 012 were injected into the anterior floor of the mouth of immunocompromised (nude) mice. Ten days following injection, animals were anesthetized, tumors measured, intumoral injections of the same compositions identified above were completed followed by the same radiation treatment (as appropriate). At approximately twenty days after injection, animals sacrificed and tumors measured. The following approximate tumor sizes (mm^3) were observed: no treatment, 750; radiation alone, 300; empty microspheres, 500; 47% IUdR microspheres (1.175 mg IUdR in injection volume of 50 ul), 425; empty rods, 250; 33% IUdR rods, 350; and direct intrumoral injection of IUdR (0.065 mg to 0.12 mg in injection volume of 50 ul), 100.

[2] = system: U251 xenograft; assay: U251 xenograft model, IUdR polymer paste with continuous ULDR and fractionated HDR; format: in vivo, mice; details: IUdR via 16.7% P(trans-CHDM/HOP) paste, ULDR 0.03 Gy/hr for 72 hr, FIG. 25
Description: To test the effect of protracted exposure sensitization, a 137-Cs source was mounted a fixed distance above the cages of animals bearing xenografts for whole body continuous ULDR (as defined below). […] For purposes of this experiment, ULDR=0.03 Gy/hr for 72 hr started 24 hours after xenograft transplantation, and HDR=2 Gy twice a day for 4 days, started immediately after ULDR, which is 4 days after implantation.

SMILES: O=c1[nH]c(=O)n([C@H]2C[C@H](O)[C@@H](CO)O2)cc1I [IUdR, 5-iododeoxyuridine]
- approximate tumor size [1]: ~100 mm^3
- xenograft growth delay, combination of IUdR and ULDR compared with ULDR plus HDR [2]: more potent than the combination of IUdR and ULDR
- xenograft growth, combination of IUdR, ULDR and HDR ([2]; HDR 2 Gy twice a day for 4 days): tumor regression
